Measurements: patent publication US11753408B2, “Compounds and method for blocking transmission of malarial parasite” (The United States of America, as represented by the …, priority 2016, dated 2023)
Like-named read-outs stand apart in the source and are kept apart here.

Columns and labels:
Solubility at pH 7.4 = type: physicochemical
[1] = system: Asexual parasites of P. falciparum strain 3D7; assay: In vitro drug activity on asexual parasites (SYBR Green assay); type: cell-based, Plasmodium falciparum
Experimental: Cell culture. Asexual parasites of P. falciparum strain 3D7 were cultured as described previously [Trager W, et al., Journal of Parasitology 2005, 91: 484-486], Stage III-V gametocytes were selected and enriched with 3-day treatment with 50 mM N-acetylglucosamine (NAG) and the following Percoll density gradient centrifugation after gametocyte production [Tanaka T Q, et al., Molecular and Biochemical Parasitology, 2011, 111: 160-163], Gametocytes of HB3 and Dd2 strains were produced and then set up for assay in a similar process. HepG2 cells (ATCC, cat. no. 77400) were cultured in 175-cm^2 tissue culture flasks with 30 ml growth medium at 37° C. in a 5% CO2 humidified atmosphere. Growth medium was made with Dulbecco's Modified Eagle Medium with 10% fetal bovine serum (FBS). Growth medium was replaced every other day and cells were passed at 75% confluence.
Asexual parasites of P. falciparum strain 3D7 were cultured as described previously (Trager, W. et al., J. Parasitol. 2005, 91(3): 484-486). Drug activity on asexual stage parasites was tested using a SYBR Green assay as described previously (Eastman, R. T. et al., Antimicrob. Agents Chemother. 2013, 57(1): 425-435; Smilkstein, M. et al., Antimicrob. Agents Chemother. 2004, 48(5): 1803-1806). Briefly, parasites were diluted to 0.5% parasitemia in complete culture medium with 2% hematocrit and drugs diluted in DMSO (≤0.5%) and were loaded into a 96-well plate (200 μl/well). No drug and RBC alone wells were included as positive and background controls, respectively, and each testing condition was examined in duplicated. After 72 h incubation under the standard culture condition and a freeze-thaw lysis step at −80° C. and room temperature, 100 μl/well of lysis buffer containing SYBR Green I was added to the parasite culture and incubated for 30 min at room temperature. The fluorescence of each well was measured at 520 nm following excitation at 490 nm using a FLUOstar Optima™ microplate reader (BMG Labtech).

PAMPA permeability = type: in vitro ADME; details: PAMPA
[2] = Microsomal stability (rat); type: in vitro ADME; details: rat microsomes
mTOR = mTOR (Homo sapiens, UniProt P42345); assay: mTOR activity (no method described); type: biochemical
[3] = P. falciparum 3D7 asexual parasites, 72 h, SYBR Green

SMILES: CN(C)Cc1ccc(-c2ccc3ncc4ccc(=O)n(-c5ccc6c(c5)C(=O)N(C)C6=O)c4c3c2)cc1 [Compound 352]
- Sol @ pH 7.4 (ug/mL) (Solubility at pH 7.4): >72.0 ug/mL
- EC50 [1, 3]: 18800 nM
- PAMPA Permeability (×10^6 cm/s) (PAMPA permeability): 343.6 ×10^6 cm/s

SMILES: CN(C)CCOc1ccc(-c2ccc3ncc4ccc(=O)n(-c5ccc(S(C)(=O)=O)cc5)c4c3c2)cc1 [Compound 71]
- Sol @ pH 7.4 (ug/mL) (Solubility at pH 7.4): 2 ug/mL
- EC50 [1, 3]: 56.6 nM
- Microsomal Stability (rat) T1/2 [2]: >30 min
- PAMPA Permeability (×10^6 cm/s) (PAMPA permeability): 133.5 ×10^6 cm/s

SMILES: Cc1cc(S(C)(=O)=O)ccc1-n1c(=O)ccc2cnc3ccc(-c4ccc(Cl)cc4)cc3c21 [Compound 34]
- Sol @ pH 7.4 (ug/mL) (Solubility at pH 7.4): <1 ug/mL
- EC50 [1, 3]: 59.4 nM
- Microsomal Stability (rat) T1/2 [2]: 17.1 min
- PAMPA Permeability (×10^6 cm/s) (PAMPA permeability): <1 ×10^6 cm/s

SMILES: CS(=O)(=O)c1ccc(-n2c(=O)ccc3cnc4ccc(-c5ccc(N)nc5)cc4c32)cc1Cl [Compound 61]
- Sol @ pH 7.4 (ug/mL) (Solubility at pH 7.4): 2.3 ug/mL
- EC50 [1, 3]: 8.49 nM
- Microsomal Stability (rat) T1/2 [2]: >30 min
- PAMPA Permeability (×10^6 cm/s) (PAMPA permeability): <1 ×10^6 cm/s

SMILES: CS(=O)(=O)c1ccc(-n2c(=O)ccc3cnc4ccc(-c5ccc(CN6CCCC6)cc5)cc4c32)cc1 [Compound 33]
- Sol @ pH 7.4 (ug/mL) (Solubility at pH 7.4): 61 ug/mL
- EC50 [1, 3]: 288 nM
- Microsomal Stability (rat) T1/2 [2]: >30 min
- PAMPA Permeability (×10^6 cm/s) (PAMPA permeability): 439.2 ×10^6 cm/s

SMILES: CC(C)(C)OC(=O)CN1Cc2cc(-n3c(=O)ccc4cnc5ccc(-c6ccc(Cl)cc6)cc5c43)ccc2C1=O [Compound 364]
- Sol @ pH 7.4 (ug/mL) (Solubility at pH 7.4): 2.7 ug/mL
- EC50 [1, 3]: 4580 nM
- Microsomal Stability (rat) T1/2 [2]: >30 min
- PAMPA Permeability (×10^6 cm/s) (PAMPA permeability): 75.9 ×10^6 cm/s

SMILES: O=C(NC1CC1)c1ccc(-n2c(=O)ccc3cnc4ccc(-c5ccc(F)cc5)cc4c32)cn1 [Compound 301]
- Sol @ pH 7.4 (Solubility at pH 7.4): <1 ug/mL
- mTOR (mTOR): 50 µM
- EC50 [1]: 206 nM
- Microsomal Stability (rat) T1/2 [2]: >30 min

SMILES: CN(C)CCN1CCN(C(=O)c2ccc(-n3c(=O)ccc4cnc5ccc(-c6ccc(C7(N)CC7)cc6)cc5c43)cc2)CC1 [Compound 270]
- Sol @ pH 7.4 (Solubility at pH 7.4): 0 ug/mL
- mTOR (mTOR): 3.254 µM
- EC50 [1]: 348 nM
- Microsomal Stability (rat) T1/2 [2]: >30 min

SMILES: NC1(c2ccc(-c3ccc4ncc5ccc(=O)n(-c6ccc(C(=O)N7CCN(CCO)CC7)cc6)c5c4c3)cc2)CC1 [Compound 269]
- Sol @ pH 7.4 (Solubility at pH 7.4): 0 ug/mL
- mTOR (mTOR): 3.874 µM
- EC50 [1]: 390 nM
- Microsomal Stability (rat) T1/2 [2]: >30 min

SMILES: O=C(NCCCN(CCO)CCO)c1ccc(-n2c(=O)ccc3cnc4ccc(-c5ccc(Cl)cc5)cc4c32)cc1 [Compound 259]
- Sol @ pH 7.4 (Solubility at pH 7.4): 0 ug/mL
- mTOR (mTOR): 0.6559 µM
- EC50 [1]: 24.2 nM
- Microsomal Stability (rat) T1/2 [2]: 2.6 min

SMILES: CC(N)c1ccc(-c2ccc3ncc4ccc(=O)n(-c5ccc6c(c5)CNC6=O)c4c3c2)cc1 (stereo not drawn) [Compound 381]
- Sol @ pH 7.4 (ug/mL) (Solubility at pH 7.4): 44.9 ug/mL
- Microsomal Stability (rat) T1/2 [2]: >30 min
- PAMPA Permeability (×10^6 cm/s) (PAMPA permeability): 4 ×10^6 cm/s

SMILES: CCN(CC)CCCNC(=O)c1ccc(-n2c(=O)ccc3cnc4ccc(-c5ccc(Cl)cc5)cc4c32)cc1 [Compound 266]
- Sol @ pH 7.4 (Solubility at pH 7.4): 0 ug/mL
- mTOR (mTOR): 3.013 µM
- EC50 [1]: 58.3 nM
- Microsomal Stability (rat) T1/2 [2]: 2.8 min

SMILES: N#Cc1cc(-n2c(=O)ccc3cnc4ccc(-c5ccc(Cl)cc5)cc4c32)ccc1C(=O)N1CCOCC1 [Compound 271]
- Sol @ pH 7.4 (Solubility at pH 7.4): 0 ug/mL
- mTOR (mTOR): 16.14 µM
- EC50 [1]: 613 nM
- Microsomal Stability (rat) T1/2 [2]: 14 min

SMILES: O=C(NCCN1CCCCC1)c1ccc(-n2c(=O)ccc3cnc4ccc(-c5ccc(Cl)cc5)cc4c32)cc1 [Compound 265]
- Sol @ pH 7.4 (Solubility at pH 7.4): 0 ug/mL
- mTOR (mTOR): 2.064 µM
- EC50 [1]: 132 nM
- Microsomal Stability (rat) T1/2 [2]: 1.9 min

SMILES: O=C(NCCN1CCNCC1)c1ccc(-n2c(=O)ccc3cnc4ccc(-c5ccc(Cl)cc5)cc4c32)cc1 [Compound 98]
- Sol @ pH 7.4 (Solubility at pH 7.4): 0 ug/mL
- mTOR (mTOR): 0.994 µM
- EC50 [1]: 19.3 nM
- Microsomal Stability (rat) T1/2 [2]: >30 min

SMILES: Cc1cc(N2CCNCC2)c(C#N)cc1-n1c(=O)ccc2cnc3ccc(-c4ccc(Cl)cc4)cc3c21 [Compound 11]
- Sol @ pH 7.4 (ug/mL) (Solubility at pH 7.4): <1 ug/mL
- Microsomal Stability (rat) T1/2 [2]: 9.6 min
- PAMPA Permeability (×10^6 cm/s) (PAMPA permeability): 21 ×10^6 cm/s

SMILES: O=C(c1ccc(-n2c(=O)ccc3c(O)nc4ccc(-c5ccc(Cl)cc5)cc4c32)cc1)N1CCOCC1 [Compound 294]
- Sol @ pH 7.4 (Solubility at pH 7.4): 0 ug/mL
- mTOR (mTOR): 4.586 µM
- EC50 [1]: 2050 nM
- Microsomal Stability (rat) T1/2 [2]: 8.4 min

SMILES: COc1cc(C(=O)NC2CC2)ccc1-n1c(=O)ccc2cnc3ccc(-c4ccc(Cl)c(O)c4)cc3c21 [Compound 273]
- Sol @ pH 7.4 (Solubility at pH 7.4): <1 ug/mL
- mTOR (mTOR): 4.164 µM
- EC50 [1]: 18.9 nM
- Microsomal Stability (rat) T1/2 [2]: >30 min

SMILES: O=C(NO)c1ccc(-n2c(=O)ccc3cnc4ccc(-c5ccc(Cl)cc5)cc4c32)cc1 [Compound 303]
- Sol @ pH 7.4 (Solubility at pH 7.4): 0.7 ug/mL
- mTOR (mTOR): 0.2376 µM
- EC50 [1]: 6.45 nM
- Microsomal Stability (rat) T1/2 [2]: >30 min

SMILES: O=C(c1ccc(-n2c(=O)ccc3cnc4ccc(-c5ccc(Cl)cc5)cc4c32)cc1)N1CCC(O)CC1 [Compound 302]
- Sol @ pH 7.4 (Solubility at pH 7.4): <1 ug/mL
- mTOR (mTOR): 1.595 µM
- EC50 [1]: 16.4 nM
- Microsomal Stability (rat) T1/2 [2]: 12 min

SMILES: O=C(NCCCN1CCS(=O)(=O)CC1)c1ccc(-n2c(=O)ccc3cnc4ccc(-c5ccc(Cl)cc5)cc4c32)cc1 [Compound 261]
- Sol @ pH 7.4 (Solubility at pH 7.4): 0 ug/mL
- mTOR (mTOR): 1.871 µM
- EC50 [1]: 60 nM
- Microsomal Stability (rat) T1/2 [2]: 1.7 min

SMILES: CN1CCN(CCCNC(=O)c2ccc(-n3c(=O)ccc4cnc5ccc(-c6ccc(Cl)cc6)cc5c43)cc2)CC1 [Compound 262]
- Sol @ pH 7.4 (Solubility at pH 7.4): 0 ug/mL
- mTOR (mTOR): 5.399 µM
- EC50 [1]: 214 nM
- Microsomal Stability (rat) T1/2 [2]: 4.3 min

SMILES: COc1cc(C(=O)NCCN2CCCC2)ccc1-n1c(=O)ccc2cnc3ccc(-c4ccc(Cl)cc4)cc3c21 [Compound 248]
- Sol @ pH 7.4 (Solubility at pH 7.4): 51.2 ug/mL
- mTOR (mTOR): 23.38 µM
- EC50 [1]: 329 nM
- Microsomal Stability (rat) T1/2 [2]: 10.6 min

SMILES: O=C(NCCCN1CCCCC1)c1ccc(-n2c(=O)ccc3cnc4ccc(-c5ccc(Cl)cc5)cc4c32)cc1 [Compound 260]
- Sol @ pH 7.4 (Solubility at pH 7.4): 0 ug/mL
- mTOR (mTOR): 5.024 µM
- EC50 [1]: 62.4 nM
- Microsomal Stability (rat) T1/2 [2]: 2.1 min

SMILES: CN(C)CCCNC(=O)c1ccc(-n2c(=O)ccc3cnc4ccc(-c5ccc(Cl)cc5)cc4c32)cc1 [Compound 258]
- Sol @ pH 7.4 (Solubility at pH 7.4): 0 ug/mL
- mTOR (mTOR): 2.541 µM
- EC50 [1]: 34.3 nM
- Microsomal Stability (rat) T1/2 [2]: 24.4 min

SMILES: O=C(c1ccc(-n2c(=O)ccc3c(Cl)nc4ccc(-c5ccc(Cl)cc5)cc4c32)cc1)N1CCOCC1 [Compound 210]
- Sol @ pH 7.4 (Solubility at pH 7.4): <1 ug/mL
- mTOR (mTOR): 100 µM
- EC50 [1]: 14500 nM
- Microsomal Stability (rat) T1/2 [2]: 2.7 min

SMILES: O=C(NC1CCN(CCO)CC1)c1ccc(-n2c(=O)ccc3cnc4ccc(-c5ccc(Cl)cc5)cc4c32)cc1 [Compound 263]
- Sol @ pH 7.4 (Solubility at pH 7.4): 0 ug/mL
- mTOR (mTOR): 1.512 µM
- EC50 [1]: 58.8 nM
- Microsomal Stability (rat) T1/2 [2]: >30 min
